Experimental data published in US7951403B2, “Method of making pharmaceutical multiparticulates” (Pfizer Inc., priority 2003, dated 2011).

Experiment: Azithromycin dihydrate crystallinity in molten carrier mixtures with varying water, by PXRD
Assay type: physicochemical
Procedure: Another way to determine the activity of volatile species in crystalline drug at the processing conditions is by measuring the change in the crystalline state of the drug as a function of the amount of volatile species present in the molten mixture. A series of blends of the crystalline drug, the carrier, and varying amounts of volatile species are prepared and placed into sealed containers. The containers are then heated to the processing temperature used to form the multiparticulates and held at this temperature for a period of time, such as 90 minutes. During this time, a sample of the container's atmosphere, i.e., the container's “headspace,” can be taken and the partial pressure of volatile species in the headspace can be measured using standard techniques, such as by gas chromatography. The containers are then cooled and the concentration of the desired crystalline form of the drug in each sample can be determined using standard techniques, as described below. The concentration of the desired crystalline form of the drug in the sample is then plotted versus the amount of volatile species included in the blend or the concentration of volatile species present in the headspace. […] The amount of the desired crystalline form of the drug in the samples and in multiparticulates can be determined using Powder X-Ray Diffraction (PXRD) analysis. In an exemplary procedure, PXRD analysis may be performed on a Bruker AXS D8 Advance diffractometer. In this analysis, samples of about 500 mg are packed in Lucite sample cups and the sample surface smoothed using a glass microscope slide to provide a consistently smooth sample surface that is level with the top of the sample cup. Samples are spun in the φ plane at a rate of 30 rpm to minimize crystal orientation effects. The X-ray source (S/B KCuα, λ=1.54 Å) is operated at a voltage of 45 kV and a current of 40 mA. Data for each sample are collected over a period of about 20 to 60 minutes in continuous detector scan mode at a scan speed of about 1 to 15 seconds/step and a step size of 0.02°/step. Diffractograms are collected over the 2θ range of 4° to 30°. The crystallinity of the test sample is determined by comparison with two or more calibration standards consisting of physical mixtures of crystalline drug and carrier. Each physical mixture is blended together 15 minutes on a Turbula mixer. Using the instrument software, the area under the diffractogram curve is integrated over the 2θ range using a linear baseline. This integration range includes as many drug-specific peaks as possible while excluding carrier-related peaks. A linear calibration curve of percent crystalline drug versus the area under the diffractogram curve is generated from the calibration standards. The crystallinity of the test sample is then determined using these calibration results and the area under the curve for the test sample. Results are reported as a mean percent drug crystallinity by crystal mass. The amount of water required to maintain the dihydrate form of azithromycin while forming multiparticulates by a melt-congeal process was determined as follows. The composition of the multiparticulates was 50 wt % azithromycin dihydrate, 46 wt % of the matrix excipient COMPRITOL 888 ATO (a mixture of 13 to 21 wt % glyceryl mono-behenate, 40 to 60 wt % glyceryl di-behenate, and about 35 wt % glyceryl tri-behenate from Gattefossé Corporation of Paramus, N.J.), and 4 wt % of the poloxamer dissolution enhancer PLURONIC F127 (polyoxyethylene-polyoxypropylene block copolymer, from BASF Corporation of Mt. Olive, N.J.). Mixtures of these materials containing varying amounts of water were prepared and analyzed by PXRD. To form each mixture, 100 g azithromycin dihydrate, 92 g of the COMPRITOL 888 ATO, and 8 g of the PLURONIC F127 were added to a water-jacketed stainless steel sealed vessel. Various amounts of water were added to each mixture to obtain varying water concentrations. […]

Azithromycin Dihydrate Crystallinity (Water in melt sample 0.35 wt %, same mixture, 90 min at 90° C.): 57 wt % | Azithromycin Dihydrate Crystallinity (Water in melt sample 0.45 wt %, same mixture, 90 min at 90° C.): 68 wt % | Azithromycin Dihydrate Crystallinity (Water in melt sample 1.88 wt %, same mixture, 90 min at 90° C.): 91 wt % | Azithromycin Dihydrate Crystallinity (Water in melt sample 2.22 wt %, same mixture, 90 min at 90° C.): 93 wt % | Azithromycin Dihydrate Crystallinity (Water in melt sample 3.08 wt %, 50/46/4 azithromycin dihydrate/COMPRITOL 888 ATO/PLURONIC F127, stirred 90 min at 90° C., sealed vessel): 95 wt % | water needed in the mixtures to maintain high levels of azithromycin dihydrate crystallinity in the melt (melt at 90° C., COMPRITOL 888 ATO/PLURONIC F127 carrier): at least 2.2 wt %
SMILES: CC[C@H]1OC(=O)[C@H](C)[C@@H](O[C@H]2C[C@@](C)(OC)[C@@H](O)[C@H](C)O2)[C@H](C)[C@@H](O[C@@H]2O[C@H](C)C[C@H](N(C)C)[C@H]2O)[C@](C)(O)C[C@@H](C)CN(C)[C@H](C)[C@@H](O)[C@]1(C)O [Azithromycin Dihydrate, 9a-aza-9a-methyl-9-deoxo-9a-homoerythromycin A]
